Laboratory results published in ChEMBL document CHEMBL1201862, “PubChem BioAssay data set” (2004).
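Where inhibition never reached the appropriate level, the endpoint shown equals the highest concentration tested. Otherwise, values were interpolated linearly from a five-concentration, 48-hour dose response in 96-well plates. Abbreviation: GI50, concentration required for 50% inhibition of growth.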 Activity calls are given as the source filed them. Cut-off read from the data, not from the text of the source: active = GI50 up to about 1.1 µM and inactive = higher.

How the values were obtained:
Experiment in all cases: NCI tumour cell line growth inhibition, 48 h
K562 = tested on: K562
MDA-N = tested on: MDA-N
COLO 205 = tested on: COLO 205
SW-620 = tested on: SW-620
SF-268 = tested on: SF-268
SR = tested on: SR
KM12 = tested on: KM12
TK-10 = tested on: TK-10
HT-29 = tested on: HT-29
Malme-3M = tested on: Malme-3M
SF-295 = tested on: SF-295
UACC-257 = tested on: UACC-257
UACC-62 = tested on: UACC-62
BT-549 = tested on: BT-549
HOP-92 = tested on: HOP-92
RXF 393 = tested on: RXF 393
SNB-19 = tested on: SNB-19
NCI-H460 = tested on: NCI-H460
PC-3 = tested on: PC-3
SNB-75 = tested on: SNB-75

Compound	GI50 (K562)	GI50 (MDA-N)	GI50 (COLO 205)	GI50 (SW-620)	GI50 (SF-268)	GI50 (SR)	GI50 (KM12)	GI50 (TK-10)	GI50 (HT-29)	GI50 (Malme-3M)	GI50 (SF-295)	GI50 (UACC-257)	GI50 (UACC-62)	GI50 (BT-549)	GI50 (HOP-92)	GI50 (RXF 393)	GI50 (SNB-19)	GI50 (NCI-H460)	GI50 (PC-3)	GI50 (SNB-75)
CC1=CC(=O)N(n2c(C)n[nH]c2=O)C1=O	> 100 µM (inactive)	> 100 µM (inactive)	> 100 µM (inactive)	> 100 µM (inactive)	> 100 µM (inactive)	> 100 µM (inactive)	> 100 µM (inactive)	> 100 µM (inactive)	> 100 µM (inactive)	> 100 µM (inactive)	> 100 µM (inactive)	> 100 µM (inactive)	> 100 µM (inactive)	> 100 µM (inactive)	> 100 µM (inactive)	> 100 µM (inactive)	> 100 µM (inactive)	> 100 µM (inactive)	> 100 µM (inactive)	–
CC(=O)c1sc2n(C)c(=O)c3ccccc3[n+]2c1C	> 100 µM (inactive)	> 100 µM (inactive)	> 100 µM (inactive)	> 100 µM (inactive)	> 100 µM (inactive)	> 100 µM (inactive)	> 100 µM (inactive)	> 100 µM (inactive)	> 100 µM (inactive)	–	> 100 µM (inactive)	> 100 µM (inactive)	> 100 µM (inactive)	> 100 µM (inactive)	46.5 µM (inactive)	> 100 µM (inactive)	> 100 µM (inactive)	> 100 µM (inactive)	> 100 µM (inactive)	–
c1ccc(C(=NNc2cnc3ccccc3n2)c2ccccn2)cc1	1.2 µM (inactive)	9.64 µM (inactive)	0.119 µM (active)	0.423 µM (active)	1.52 µM (inactive)	1.01 µM (active)	4.08 µM (inactive)	–	0.048 µM (active)	0.532 µM (active)	2.93 µM (inactive)	0.418 µM (active)	3 µM (inactive)	8.18 µM (inactive)	5.6 µM (inactive)	7.59 µM (inactive)	6.43 µM (inactive)	1.26 µM (inactive)	2.56 µM (inactive)	5.85 µM (inactive)
O=C(Cn1cc(F)c(=O)[nH]c1=O)C12CC3CC(CC(C3)C1)C2	> 100 µM (inactive)	> 100 µM (inactive)	> 100 µM (inactive)	> 100 µM (inactive)	> 100 µM (inactive)	> 100 µM (inactive)	> 100 µM (inactive)	> 100 µM (inactive)	> 100 µM (inactive)	> 100 µM (inactive)	> 100 µM (inactive)	> 100 µM (inactive)	> 100 µM (inactive)	> 100 µM (inactive)	–	> 100 µM (inactive)	> 100 µM (inactive)	> 100 µM (inactive)	> 100 µM (inactive)	> 100 µM (inactive)
O=C(O)CCC1(c2ccccc2)NC(=O)NC1=O (stereo not drawn)	> 100 µM (inactive)	> 100 µM (inactive)	> 100 µM (inactive)	> 100 µM (inactive)	> 100 µM (inactive)	> 100 µM (inactive)	> 100 µM (inactive)	> 100 µM (inactive)	> 100 µM (inactive)	> 100 µM (inactive)	> 100 µM (inactive)	> 100 µM (inactive)	> 100 µM (inactive)	> 100 µM (inactive)	> 100 µM (inactive)	> 100 µM (inactive)	–	> 100 µM (inactive)	> 100 µM (inactive)	> 100 µM (inactive)
N#C/C(C(=O)Nc1ccc(Cl)cc1)=C(/N)N1CCOCC1	61.2 µM (inactive)	61.8 µM (inactive)	> 100 µM (inactive)	> 100 µM (inactive)	–	> 100 µM (inactive)	> 100 µM (inactive)	–	> 100 µM (inactive)	–	> 100 µM (inactive)	47.4 µM (inactive)	77.8 µM (inactive)	> 100 µM (inactive)	> 100 µM (inactive)	–	> 100 µM (inactive)	> 100 µM (inactive)	> 100 µM (inactive)	65.5 µM (inactive)
O=[N+]([O-])c1cccc2nccc(NCCCO)c12	13.2 µM (inactive)	9.66 µM (inactive)	3.55 µM (inactive)	13.3 µM (inactive)	11.6 µM (inactive)	7.66 µM (inactive)	10.8 µM (inactive)	8.79 µM (inactive)	6.89 µM (inactive)	10.2 µM (inactive)	15.5 µM (inactive)	11.4 µM (inactive)	8.57 µM (inactive)	8.93 µM (inactive)	–	6.17 µM (inactive)	25.1 µM (inactive)	11 µM (inactive)	20.7 µM (inactive)	24.3 µM (inactive)
O=C(N/C(=C\c1ccccc1)c1nc2ccccc2c(=O)o1)c1ccccc1	> 100 µM (inactive)	> 53 µM (inactive)	> 100 µM (inactive)	> 88.3 µM (inactive)	23.8 µM (inactive)	> 100 µM (inactive)	7.96 µM (inactive)	> 100 µM (inactive)	> 100 µM (inactive)	> 100 µM (inactive)	36.2 µM (inactive)	> 43.1 µM (inactive)	30.1 µM (inactive)	20 µM (inactive)	–	> 62.5 µM (inactive)	27.3 µM (inactive)	> 72.6 µM (inactive)	> 100 µM (inactive)	20.4 µM (inactive)
